Test system: 873145-292-R-J1-PDC complex spheroid viability
Experiment: Anticancer human tumor 873145-292-R-J1-PDC patient-derived renal clear cell carcinoma cell line growth inhibition [POLQ]
Details: for IC50: curve of first compound; for viability, T/C: stronger effect = lower value
Experimental: Multicellular complex tumor spheroid response to Polymerase (POL) inhibitors (novobiocin, ART-558, RP6685) in combination with a variety of drugs and investigational agents in selected tumor cell lines
The POL inhibitors (novobiocin, ART-558, and RP6685) were evaluated both individually and in combination with standard of care and investigational anticancer small molecules within a complex spheroid model of solid tumors. . Complex spheroids include a stromal component modeled by human endothelial cells (HUVEC) and fibroblasts modeled by human mesenchymal stem cells (MSCs). The concentration ranges selected for each drug and investigational agent were based upon clinically achievable concentrations if the clinical Cmax of the agent was known.
Compounds. The drugs and investigational agents: novobiocin (NSC847541), ART-558 (NSC835418), RP-6685 (NSC848927), peposertib (NSC802822), ceralasertib (NSC780249), elimusertib (NSC800525), camonsertib (NSC841442), AZD-1390 (NSC803789), olaparib (NSC753686), talazoparib (NSC767125), rucaparib (NSC756644), sotorasib (NSC818433), MRTX-1133 (NSC836407), SN-38 (NSC673596), topotecan (NSC609699), epotoside (NSC141540), doxorubicin (NSC123127), gemcitabine (NSC613327), 5-fluorouracil (NSC19893), paclitaxel (NSC125973), vemurafenib (NSC761431), MSA-2 (NSC828583), SN-011 (NSC837082), adavosertib (NSC754352), prexasertib (NSC758257), carboplatin (NSC241240) and oxaliplatin (NSC266046), were obtained from the National Cancer Institute (NCI) Developmental Therapeutics Program Chemical Repository (21). The FDA-approved anticancer drug set is available from the Developmental Therapeutics Program at https://dtp.cancer.gov/organization/dscb/obtaining/. […] The stock solutions were prepared in dimethyl sulfoxide (DMSO, Sigma-Aldrich, St. Louis, MO, cat. D2650), except for the platinum compounds which were prepared in saline (Quality Biological, Gaithersburg, MD, cat. 114-055-101), at 800-fold the tested concentration and stored at -70 degrees C prior to their use. All drugs and investigational agents were tested over a range starting from a high concentration at or near the clinical Cmax and decreasing in half-log increments. If the clinical Cmax for an agent had not been determined, the highest concentration tested was 10 microM, except for SN-38, which was tested at a high concentration of 1 microM.
Cell Culture. All cells were maintained in an incubator at 37 degrees C and 5% CO2 with 95% humidity. The PDC lines were cultured according to standard operating procedures established by the NCI PDMR (https://pdmr.cancer.gov). Table 3 of the manuscript, lists the cell lines along with the number of the three cell types plated to form the mct-spheroids and media for tumor cell growth. After thawing, all PDC lines, except 997537-175-T-J1-PDC and 415267-285-R-J2-PDC, were cultured in Matrigel-coated flasks prepared with a working solution of 1X Ham's F-12 nutrient mix, without supplementation (Thermo Fisher Scientific, cat. 11765054), 100 U/mL penicillin-streptomycin (Thermo Fisher Scientific, cat. 15140122), and 2.5% Matrigel (Corning Inc., Corning, NY, cat. 354248) for the first three passages. The two PDC lines 997537-175-T-J1-PDC and 415267-285-R-J2-PDC were cultured on uncoated flasks. The 857933-349-R-J2-PDC line was cultured in 6C/Colon 1B media containing advanced DMEM/F-12 (Thermo Fisher Scientific, cat. 12634028), 10 mM HEPES (Thermo Fisher Scientific, cat. 15630080), 1X GlutaMAX supplement (Thermo Fisher Scientific, cat. 35050061), 0.1 mg/mL primocin (InvivoGen, San Diego, CA, cat. ant-pm-2), 10% defined fetal bovine serum, heat inactivated (HyClone Laboratories Inc., Logan, UT, cat. SH30070.03HI), 50% L-WRN conditioned media (ATCC, cat. CRL-3276), 1.25 mM N-Acetyl-L-cysteine (Sigma-Aldrich, cat. A9165), 10 mM nicotinamide (Sigma-Aldrich, cat. N0636), 1X B-27 supplement (Thermo Fisher Scientific, cat. 17504044), 1X N-2 supplement (Thermo Fisher Scientific, cat. […]
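Note: spheroids exposed to compounds for 7 days before viability readout.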
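Throughout, for viability, T/C: luminescence signal used as surrogate for viable cell content; 100% = DMSO vehicle control viability.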

Q: What does the source list for O=C(Nc1ccc(O)c(NS(=O)(=O)c2ccc(F)cc2)c1)c1ccc(-c2ccccc2)cc1 + Cc1cccc(N(C)C(=O)C2C(O)CCN2c2nc(C)cc(C(F)(F)F)c2C#N)c1?
A: IC50 (second compound 0.0316 µM): > 10 µM; IC50 (second compound 0.1 µM): > 10 µM; IC50 (second compound 0.316 µM): > 10 µM; IC50 (second compound 1 µM): > 10 µM; IC50 (second compound 3.16 µM): > 10 µM; IC50 (second compound 10 µM): > 10 µM; viability, T/C (second compound 0.0316 µM, first compound 0.0316 µM): 110%; viability, T/C (second compound 0.0316 µM, first compound 0.1 µM): 98.5%; viability, T/C (second compound 0.0316 µM, first compound 0.316 µM): 105%; viability, T/C (second compound 0.0316 µM, first compound 1 µM): 91.6%; viability, T/C (second compound 0.0316 µM, first compound 3.16 µM): 95%; viability, T/C (second compound 0.0316 µM, first compound 10 µM): 110%; viability, T/C (second compound 0.1 µM, first compound 0.0316 µM): 107%; viability, T/C (second compound 0.1 µM, first compound 0.1 µM): 112%; viability, T/C (second compound 0.1 µM, first compound 0.316 µM): 91.7%; viability, T/C (second compound 0.1 µM, first compound 1 µM): 96%; viability, T/C (second compound 0.1 µM, first compound 3.16 µM): 105%; viability, T/C (second compound 0.1 µM, first compound 10 µM): 88.6%; viability, T/C (second compound 0.316 µM, first compound 0.0316 µM): 106%; viability, T/C (second compound 0.316 µM, first compound 0.1 µM): 103%; viability, T/C (second compound 0.316 µM, first compound 0.316 µM): 91.3%; viability, T/C (second compound 0.316 µM, first compound 1 µM): 92.8%; viability, T/C (second compound 0.316 µM, first compound 3.16 µM): 112%; viability, T/C (second compound 0.316 µM, first compound 10 µM): 102%; viability, T/C (second compound 1 µM, first compound 0.0316 µM): 106%; viability, T/C (second compound 1 µM, first compound 0.1 µM): 109%; viability, T/C (second compound 1 µM, first compound 0.316 µM): 111%; viability, T/C (second compound 1 µM, first compound 1 µM): 93.2%; viability, T/C (second compound 1 µM, first compound 3.16 µM): 103%; viability, T/C (second compound 1 µM, first compound 10 µM): 104%; viability, T/C (second compound 3.16 µM, first compound 0.0316 µM): 94.9%; viability, T/C (second compound 3.16 µM, first compound 0.1 µM): 105%; viability, T/C (second compound 3.16 µM, first compound 0.316 µM): 104%; viability, T/C (second compound 3.16 µM, first compound 1 µM): 99.3%; viability, T/C (second compound 3.16 µM, first compound 3.16 µM): 99.3%; viability, T/C (second compound 3.16 µM, first compound 10 µM): 95.5%; viability, T/C (second compound 10 µM, first compound 0.0316 µM): 96.9%; viability, T/C (second compound 10 µM, first compound 0.1 µM): 107%; viability, T/C (second compound 10 µM, first compound 0.316 µM): 100%; viability, T/C (second compound 10 µM, first compound 1 µM): 93.9%; viability, T/C (second compound 10 µM, first compound 3.16 µM): 111%; viability, T/C (second compound 10 µM, first compound 10 µM): 102%

Q: Which results are given for CC(=O)O[C@H]1C(=O)[C@@]2(C)[C@H]([C@H](OC(=O)c3ccccc3)[C@]3(O)C[C@H](OC(=O)[C@H](O)[C@@H](NC(=O)c4ccccc4)c4ccccc4)C(C)=C1C3(C)C)[C@]1(OC(C)=O)CO[C@@H]1C[C@@H]2O + Nc1ccc(C#CCN(C(=O)Cc2ncc(C(F)(F)F)cc2C(F)(F)F)c2ccc(F)cc2)nn1?
A: IC50 (second compound 0.0316 µM): > 3 µM; IC50 (second compound 0.1 µM): > 3 µM; IC50 (second compound 0.316 µM): > 3 µM; IC50 (second compound 1 µM): > 3 µM; IC50 (second compound 3.16 µM): > 3 µM; IC50 (second compound 10 µM): > 3 µM; viability, T/C (second compound 0.0316 µM, first compound 0.00949 µM): 89.1%; viability, T/C (second compound 0.0316 µM, first compound 0.03 µM): 85.9%; viability, T/C (second compound 0.0316 µM, first compound 0.0949 µM): 79.5%; viability, T/C (second compound 0.0316 µM, first compound 0.3 µM): 72.9%; viability, T/C (second compound 0.0316 µM, first compound 0.949 µM): 67.6%; viability, T/C (second compound 0.0316 µM, first compound 3 µM): 71.2%; viability, T/C (second compound 0.1 µM, first compound 0.00949 µM): 85.4%; viability, T/C (second compound 0.1 µM, first compound 0.03 µM): 90.2%; viability, T/C (second compound 0.1 µM, first compound 0.0949 µM): 71.8%; viability, T/C (second compound 0.1 µM, first compound 0.3 µM): 68.3%; viability, T/C (second compound 0.1 µM, first compound 0.949 µM): 68.8%; viability, T/C (second compound 0.1 µM, first compound 3 µM): 65%; viability, T/C (second compound 0.316 µM, first compound 0.00949 µM): 90.3%; viability, T/C (second compound 0.316 µM, first compound 0.03 µM): 84.6%; viability, T/C (second compound 0.316 µM, first compound 0.0949 µM): 68.1%; viability, T/C (second compound 0.316 µM, first compound 0.3 µM): 68.8%; viability, T/C (second compound 0.316 µM, first compound 0.949 µM): 66.9%; viability, T/C (second compound 0.316 µM, first compound 3 µM): 62.8%; viability, T/C (second compound 1 µM, first compound 0.00949 µM): 85.2%; viability, T/C (second compound 1 µM, first compound 0.03 µM): 71.5%; viability, T/C (second compound 1 µM, first compound 0.0949 µM): 72.7%; viability, T/C (second compound 1 µM, first compound 0.3 µM): 70.7%; viability, T/C (second compound 1 µM, first compound 0.949 µM): 70.7%; viability, T/C (second compound 1 µM, first compound 3 µM): 68.7%; viability, T/C (second compound 3.16 µM, first compound 0.00949 µM): 87%; viability, T/C (second compound 3.16 µM, first compound 0.03 µM): 73.7%; viability, T/C (second compound 3.16 µM, first compound 0.0949 µM): 72.3%; viability, T/C (second compound 3.16 µM, first compound 0.3 µM): 72.3%; viability, T/C (second compound 3.16 µM, first compound 0.949 µM): 71.8%; viability, T/C (second compound 3.16 µM, first compound 3 µM): 69%; viability, T/C (second compound 10 µM, first compound 0.00949 µM): 81.1%; viability, T/C (second compound 10 µM, first compound 0.03 µM): 75.5%; viability, T/C (second compound 10 µM, first compound 0.0949 µM): 74.8%; viability, T/C (second compound 10 µM, first compound 0.3 µM): 67.1%; viability, T/C (second compound 10 µM, first compound 0.949 µM): 65.7%; viability, T/C (second compound 10 µM, first compound 3 µM): 74%

— PubChem BioAssay AID1963834 (Molecular Pharmacology Branch, DTP, NCI, 2024)
